# Test results from EPA's ToxValDB 9.5 (doi:10.2903/j.efsa.2013.3220).
# Tests used:
# Rattus norvegicus = settings: for LD50: acute, oral, mortality
# Lepomis macrochirus = settings: acute; duration: 96 hours; mortality
# Daphnia magna = settings: chronic/long-term, duration: 21 days
# Bibionidae = settings: chronic/long-term, duration: 28 days
# Zea sp. = settings: acute, duration: 14 days
# Pimephales promelas = settings: chronic/long-term; duration: 32 days; body weight
# Canidae = settings: chronic; duration: 1 years; oral; M/F; Dog Other; histopathology: nonneoplastic
# Colinus virginianus = settings: for LD50: acute, oral, mortality
# Apis mellifera = settings: acute, mortality
# Typhlodromus pyri = experiment: LR50; higher = less toxic; settings: chronic/long-term; duration: 7 days; mortality
# Aphidius rhopalosiphi = experiment: LR50; higher = less toxic; settings: acute; duration: 48 hours; mortality
smiles,measurement,setting,value
CCO[C@@H]1[C@@H](OC)[C@H](C)O[C@@H](O[C@@H]2C[C@H]3CC[C@@H]4[C@@H](C=C5C(=O)[C@H](C)[C@@H](O[C@H]6CC[C@H](NC)[C@@H](C)O6)CCC[C@H](CC)OC(=O)C[C@H]54)[C@@H]3C2)[C@@H]1OC [N-demethyl-175-J],LD50,Rattus norvegicus,3130 mg/kg-day
same,LC50,Lepomis macrochirus,2.98 µg/mL
same,NOEC,Daphnia magna,0.03 µg/L
same,NOEC,Bibionidae,0.617 µg/L
CCO[C@@H]1[C@@H](OC)[C@H](C)O[C@@H](O[C@@H]2C[C@H]3CC[C@@H]4[C@@H](C=C5C(=O)[C@H](C)[C@@H](O[C@H]6CC[C@H](N(C)C=O)[C@@H](C)O6)CCC[C@H](CC)OC(=O)C[C@H]54)[C@@H]3C2)[C@@H]1OC [N-demethyl-175-L],LC50,Lepomis macrochirus,1.55 µg/mL
same,NOEC,Daphnia magna,0.027 µg/L
CCO[C@@H]1[C@@H](OC)[C@H](C)O[C@@H](OC2C[C@H]3CC[C@H]4C5CC(=O)O[C@@H](CC)CCC[C@H](O[C@H]6CC[C@H](N(C)C)[C@@H](C)O6)[C@@H](C)C(=O)C5=C[C@H]4[C@@H]3C2)[C@@H]1OC (some centres not stated) [Spinetoram],LEC,Zea sp.; other,≤ 150 g/ha
same,LEC,Zea sp.; seedling emergence,≤ 150 g/ha
same,LD50,Rattus norvegicus,> 5000 mg/kg-day
same,NOAEL,"Rattus norvegicus; reproduction developmental, reproduction",10 mg/kg-day
same,NOEC,Pimephales promelas,0.182 mg/L
same,LC50,Lepomis macrochirus,2.69 µg/mL
same,NOAEL,Canidae,2.5 mg/kg-day
same,NOEC,Daphnia magna; mobility,0.0624 µg/L
same,LC50,"Tagia sp.; acute, duration: 14 days, mortality",> 1000 mg/kg
same,NOEC,"Tagia sp.; chronic/long-term, duration: 56 days, reproduction",18.6 mg/kg
same,LD50,Colinus virginianus; diet,> 2040 mg/kg-day
same,LD50,Colinus virginianus,> 2250 mg/kg-day
same,NOEL,Colinus virginianus; reproduction developmental,95 mg/kg-day
same,LD50,"Anas platyrhynchos; acute, oral, unspecified, mortality",> 2250 mg/kg-day
same,NOEL,Anas platyrhynchos; reproductive,149 mg/kg-day
same,LD50,"Apis mellifera; duration: 48 hours, dermal",0.024 µg/piece
same,LD50,"Apis mellifera; duration: 72 hours, oral, unspecified",0.11 µg/piece
same,NOEC,"Bibionidae; M/F, development",97.2 µg/kg
same,NOEC,Bibionidae; development,0.75 µg/L
same,LR50,Typhlodromus pyri,0.132 g/ha
same,LR50,Aphidius rhopalosiphi,0.0885 g/ha
